Test results published in paper PMC6628712 (Journal of enzyme inhibition and medicinal chemistry, 2016).
Like-named read-outs stand apart in the source and are kept apart here.

Legend:
[1] = human, in vivo
[2] = unbound fraction in plasma; ref [64]–[73]; cited from earlier work
[3] = biological target: T1, CYP2C8 (Homo sapiens, UniProt P10632); settings: read-out: CYP2C8 IC50, cited from earlier work
T1 sequence (P10632 1-490): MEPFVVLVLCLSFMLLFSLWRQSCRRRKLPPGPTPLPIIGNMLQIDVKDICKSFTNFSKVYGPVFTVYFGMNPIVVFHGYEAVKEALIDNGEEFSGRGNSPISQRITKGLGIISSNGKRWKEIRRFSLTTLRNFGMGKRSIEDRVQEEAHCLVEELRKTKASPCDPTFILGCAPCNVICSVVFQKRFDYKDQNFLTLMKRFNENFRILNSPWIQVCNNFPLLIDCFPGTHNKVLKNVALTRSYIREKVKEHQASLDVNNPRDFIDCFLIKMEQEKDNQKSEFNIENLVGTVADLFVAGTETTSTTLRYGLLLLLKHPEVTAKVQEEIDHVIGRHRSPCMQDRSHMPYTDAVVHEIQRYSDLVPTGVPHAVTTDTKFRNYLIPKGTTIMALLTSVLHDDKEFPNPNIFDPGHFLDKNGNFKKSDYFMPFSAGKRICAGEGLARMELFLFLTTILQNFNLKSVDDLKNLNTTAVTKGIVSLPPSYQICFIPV

[4] = total plasma, clinically relevant dose as in column Oral Dose; ref [64]–[73]; cited from earlier work
[5] = biological target: T2, CYP26B1 (Homo sapiens, UniProt Q9NR63); assay: Inhibition of CYP26B1-catalyzed tazarotenic acid sulfoxide formation; format: biochemical; settings: recombinant CYP26B1, probe tazarotenic acid sulfoxide formation, ± standard error
T2 sequence (Q9NR63 1-512): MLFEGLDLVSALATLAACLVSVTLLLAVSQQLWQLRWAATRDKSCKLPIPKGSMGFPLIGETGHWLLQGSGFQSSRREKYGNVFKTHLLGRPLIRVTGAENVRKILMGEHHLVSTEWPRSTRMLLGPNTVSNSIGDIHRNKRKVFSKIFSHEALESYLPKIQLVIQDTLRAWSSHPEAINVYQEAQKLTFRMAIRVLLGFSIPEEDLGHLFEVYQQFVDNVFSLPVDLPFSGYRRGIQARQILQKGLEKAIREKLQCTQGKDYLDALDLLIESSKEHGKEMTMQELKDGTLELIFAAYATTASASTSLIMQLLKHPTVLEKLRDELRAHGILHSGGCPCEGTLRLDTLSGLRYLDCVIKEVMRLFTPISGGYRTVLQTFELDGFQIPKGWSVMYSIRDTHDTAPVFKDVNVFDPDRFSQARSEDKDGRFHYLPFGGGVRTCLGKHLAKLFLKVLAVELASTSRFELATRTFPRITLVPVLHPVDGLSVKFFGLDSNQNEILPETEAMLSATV

[6] = biological target: T3, CYP26A1 (Homo sapiens, UniProt O43174); assay: Inhibition of CYP26A1-catalyzed tazarotenic acid sulfoxide formation; format: biochemical
T3 sequence (O43174 1-497): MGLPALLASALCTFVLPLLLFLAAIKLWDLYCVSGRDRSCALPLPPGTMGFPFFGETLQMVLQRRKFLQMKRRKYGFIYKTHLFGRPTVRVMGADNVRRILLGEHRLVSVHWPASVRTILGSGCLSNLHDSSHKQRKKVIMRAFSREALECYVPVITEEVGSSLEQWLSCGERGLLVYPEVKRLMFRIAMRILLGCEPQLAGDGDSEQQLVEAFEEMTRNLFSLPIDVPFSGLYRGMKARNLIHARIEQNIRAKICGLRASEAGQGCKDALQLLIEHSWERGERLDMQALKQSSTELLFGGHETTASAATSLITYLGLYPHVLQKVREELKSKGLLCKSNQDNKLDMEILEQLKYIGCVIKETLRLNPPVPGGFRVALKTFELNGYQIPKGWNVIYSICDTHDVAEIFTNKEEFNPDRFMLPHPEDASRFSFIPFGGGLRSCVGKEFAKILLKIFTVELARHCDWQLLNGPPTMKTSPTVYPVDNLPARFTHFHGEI

[7] = biological target: T2, CYP26B1; assay: Spectral binding determination, CYP26B1; settings: UV-difference spectra
[8] = tested on: CYP26A1, CYP26B1 or CYP2C8; assay: In vitro stability of candesartan cilexetil; format: in vitro ADME; settings: 1 μM, 5 nM CYP26A1, CYP26B1 or CYP2C8, NADPH, up to 10 minutes; data not shown
[9] = patient with acute promyelocytic leukemia, co-administration of oral fluconazole; ref [102]; cited from earlier work
[10] = tested on: CYP26A1; settings: in vitro; ref [97]; cited from earlier work
[11] = biological target: T3, CYP26A1; assay: Spectral binding determination, CYP26A1; settings: UV-difference spectra
[12] = substrate amodiaquine, ref [51]
[13] = read-out: CYP26B1 IC50, tazarotenic acid
[14] = read-out: CYP26A1 IC50, tazarotenic acid, recombinant CYP26A1, probe tazarotenic acid sulfoxide formation, ± standard error
[15] = substrate montelukast (HLM), ref [44]
[16] = CYP26A1 IC50, tazarotenic acid, recombinant CYP26A1, probe tazarotenic acid sulfoxide formation, ± standard error

Structure (SMILES) | Cmax,u [1] | fu,plasma [2] | IC50 [3, 12] | Cmax [4] | IC50 [5, 13] | IC50 [6, 14] | IC50 ([5]; CYP26B1 IC50, tazarotenic acid) | IC50 [6, 16] | further results
C#C[C@]1(O)CC[C@H]2[C@@H]3CCc4cc(O)ccc4[C@H]3CC[C@@]21C [17α-Ethynylestradiol] | 0.00085 nM | 0.002 | 6540 ± 1220 nM | 0.5 nM | 6730 ± 3770 nM | 2240 ± 1330 nM |  |  | 
CC1(C)CCC(C)(C)c2cc(NC(=O)c3ccc(C(=O)O)cc3)ccc21 [AM80] |  |  |  |  | 9210 ± 830 nM | 2890 ± 240 nM |  |  | 
CCc1oc2ccccc2c1C(=O)c1cc(Br)c(O)c(Br)c1 [Benzbromarone] | 92.4 nM | 0.010 |  | 9240 nM |  |  | 7570 ± 4930 nM |  | IC50 [3, 15]: 380 nM; IC50 [6]: 630 ± 60 nM
C=C(c1ccc(C(=O)O)cc1)c1cc2c(cc1C)C(C)(C)CCC2(C)C [Bexarotene] |  |  |  |  |  |  | 1600 ± 270 nM |  | IC50 [6]: 1310 ± 480 nM
O=C(O)c1ccc2cc(-c3ccc(O)c(C45CC6CC(CC(C6)C4)C5)c3)ccc2c1 [CD437] |  |  |  |  | 140 ± 50 nM | 10 ± 10 nM |  |  | 
CCOc1nc2cccc(C(=O)OC(C)OC(=O)OC3CCCCC3)c2n1Cc1ccc(-c2ccccc2-c2nnn[nH]2)cc1 (stereo not shown) [Candesartan Cilexetil] |  |  | 496 ± 190 nM |  |  |  | 270 ± 60 nM |  | Binding mechanism, CYP26B1 [7]: No binding spectra could be obtained; Degradation of candesartan cilexetil [8]: Minimal degradation; IC50 [6]: 410 ± 320 nM
CCOc1nc2cccc(C(=O)O)c2n1Cc1ccc(-c2ccccc2-c2nnn[nH]2)cc1 [Candesartan] | 0.38 nM |  | 36200 ± 1700 nM | 270 nM |  |  | 58300 nM | 25600 ± 25800 nM | 
CC1(C)CCC(C)(C)c2cc(C#Cc3ccc(C(=O)O)cc3)ccc21 [EC23] |  |  |  |  | 3450 ± 2800 nM | 1600 ± 740 nM |  |  | 
OC(Cn1cncn1)(Cn1cncn1)c1ccc(F)cc1F [Fluconazole] | 30794 nM |  |  | 34600 nM |  |  | 19800 ± 3210 nM | 700 ± 190 nM | IC50 ([3]; substrate amodiaquine, ref [50]): 48900 nM; Increase of AUC of orally administered retinoic acid [9]: 4 fold; Increase of Cmax of orally administered retinoic acid [9]: 6 fold; Inhibition of CYP26A1-catalyzed 4-hydroxyretinoic acid formation [10]: not be inhibitors
CCC(C)n1ncn(-c2ccc(N3CCN(c4ccc(OCC5COC(Cn6cncn6)(c6ccc(Cl)cc6Cl)O5)cc4)CC3)cc2)c1=O (stereo not shown) [Itraconazole] | 1.80 nM |  |  | 919 nM |  |  | 160 ± 20 nM | 550 ± 90 nM | IC50 ([3]; substrate paclitaxel, ref Unpublished Data): 2160 ± 410 nM
Clc1cccc(C(c2ccc3[nH]cnc3c2)n2ccnc2)c1 (stereo not shown) [Liarazole] |  |  |  |  | 10 ± 10 nM |  |  |  | 
CC1(C)CCC(C)(C)c2cc(C3(c4ccc5cc(C(=O)O)ccc5c4)SCCS3)ccc21 [MM11253] |  |  |  |  | 1250 ± 440 nM | 20 ± 10 nM |  |  | 
C[C@@H]1C[C@H]2[C@@H]3CCC4=CC(=O)C=C[C@]4(C)[C@@]3(Cl)[C@@H](O)C[C@]2(C)[C@@]1(O)C(=O)CCl [Mometasone] | 0.0005 nM | 0.010 | 813 ± 112 nM | 0.05 nM | 6810 ± 1190 nM | 900 ± 80 nM |  |  | 
CC(C)(O)c1ccccc1CC[C@@H](SCC1(CC(=O)O)CC1)c1cccc(/C=C/c2ccc3ccc(Cl)cc3n2)c1 [Montelukast] | 8.90 nM |  |  | 925 nM |  |  | 610 ± 90 nM | 120 ± 20 nM | 
CCc1ccc(CCOc2ccc(CC3SC(=O)NC3=O)cc2)nc1 (stereo not shown) [Pioglitazone] | 38.0 nM |  | 11700 ± 4000 nM | 4490 nM |  |  | 8480 ± 1190 nM | 930 ± 260 nM | 
O=c1c(O)c(-c2ccc(O)c(O)c2)oc2cc(O)cc(O)c12 [Quercetin] | 0.45 nM | 0.009 |  | 50.9 nM |  |  | 76200 ± 148000 nM | 1920 ± 390 nM | Inhibition of CYP26A1-catalyzed 4-hydroxyretinoic acid formation [10]: not be inhibitors
O=C(c1ccc(OCCN2CCCCC2)cc1)c1c(-c2ccc(O)cc2)sc2cc(O)ccc12 [Raloxifene] | 0.50 nM | 0.050 | 2150 ± 900 nM | 1.05 nM |  |  | 3280 ± 1150 nM | 1780 ± 770 nM | 
CCOc1cc(CC(=O)N[C@@H](CC(C)C)c2ccccc2N2CCCCC2)ccc1C(=O)O [Repaglinide] | 2.60 nM | 0.026 |  | 104 nM |  |  | 610 ± 250 nM | 7730 ± 2690 nM | IC50 [3, 15]: 11100 nM
CC(C)c1nc(CN(C)C(=O)N[C@H](C(=O)N[C@@H](Cc2ccccc2)C[C@H](O)[C@H](Cc2ccccc2)NC(=O)OCc2cncs2)C(C)C)cs1 [Ritonavir] | 150 nM |  |  | 15300 nM |  |  |  |  | 
CN(CCOc1ccc(CC2SC(=O)NC2=O)cc1)c1ccccn1 (stereo not shown) [Rosiglitazone] | 3.40 nM | 0.002 | 10800 ± 3100 nM | 1670 nM |  |  | 8470 ± 6640 nM | 11900 ± 1020 nM | 
CC1(C)CCC(C)(C)c2cc(C3(c4ccc(C(=O)O)cc4)OCCO3)ccc21 [SR11237] |  |  |  |  | 6860 ± 460 nM | 810 ± 340 nM |  |  | 
CCC(CC)C(c1ccc(Nc2nc3ccccc3s2)cc1)n1cncn1 (stereo not shown) [Talarazole] |  |  |  |  | 1 ± 1 nM | 20 ± 10 nM |  |  | 
CC/C(=C(\c1ccccc1)c1ccc(OCCN(C)C)cc1)c1ccccc1 [Tamoxifen] | 6.40 nM | 0.020 | 3340 ± 1550 nM | 323 nM |  |  | 14000 ± 1110 nM | 21400 ± 20300 nM | Inhibition of CYP26A1-catalyzed 4-hydroxyretinoic acid formation [10]: not be inhibitors
COc1cc(C(=O)NS(=O)(=O)c2ccccc2C)ccc1Cc1cn(C)c2ccc(NC(=O)OC3CCCC3)cc12 [Zafirlukast] | 3.00 nM | 0.010 | 644 ± 273 nM | 1120 nM |  |  | 710 ± 230 nM | 60 ± 20 nM | Binding mechanism, CYP26A1 [11]: No binding spectra could be obtained; Selectivity for CYP26A1 (versus CYP26B1) ([6]; ratio of IC50 values, tazarotenic acid probe): 11.8 fold
